Laboratory results taken from US20160045513A1, “ISOXAZOLE COMPOUND FOR THE TREATMENT OF CANCER” (Novartis AG, priority 2007, published 2016).

Experiments:
Assay in all cases: cell proliferation, tumor derived cell lines
Assay type in all cases: cell-based
Colo205 = conditions: Homo sapiens, COLO 205, Colon, 72 or 96 hours exposure
Experimental: (§1) Thirty-seven cancer derived cell lines are used (BT474, MDA-MB-361, MDA-MB-453, SKBr3, T47D, MCF7, MDA-MB-231, MDA-MB-468, SK-MEL-5, A375, MALME-3M, SK-MEL-28, WM266.4, RPMI8226, U266, BE, Colo205, HCT116, HT29, MAWI, RKO, U87MG, HN5, RPMI-8226, A549, MV522, NCI-H1299, NCI-H460, 41M, A2780, CHI, NCI-N87, SKOV3, PC3, MO7e, GIST882 and Baf3) to test the effect of 5-(2,4-Dihydroxy-5-isopropyl-phenyl)-4-(4-morpholin-4-ylmethyl-phenyl)-isoxazole-3-carboxylic acid ethylamide. Cell lines are commercially available from American Type Culture Collection (ATCC). These cell lines cover the following 12 cancer or tumor types: breast, melanoma, multiple myeloma (MM), colon, glioblastoma, head & neck, leukemia, lung, ovarian, prostate, stomach and gastrointestinal stromal tumour (GIST). After division and medium change, cells from stock culture are seeded on cell plates and cultured for about 18 hours to allow cell growth and attachment before starting the assay. On the first day of the assay, 5-(2,4-Dihydroxy-5-isopropyl-phenyl)-4-(4-morpholin-4-ylmethyl-phenyl)-isoxazole-3-carboxylic acid ethylamide is added to the medium at various concentrations up to […]. Cells are cultured up to 72 or 96 hours and cell proliferation is determined using commercially available cell proliferation kits.
(§2) The cells were continually exposed to 5-(2,4-Dihydroxy-5-isopropyl-phenyl)-4-(4-morpholin-4-ylmethyl-phenyl)-isoxazole-3-carboxylic acid ethylamide for either 72 or 96 hours and cell growth was determined by commercially available kits based on either SRB, Alamar blue, methylene blue or WST-1 methods.

NCI-H460 = conditions: Homo sapiens, Lung, 72 or 96 hours exposure
Experimental: as §1, §2

SK-MEL-28 = conditions: Homo sapiens, Melanoma, 72 or 96 hours exposure
Experimental: as §1, §2

HCT116 = conditions: Homo sapiens, HCT-116, Colon, 72 or 96 hours exposure
Experimental: as §1, §2

GIST882 = conditions: Homo sapiens, Gastrointestinal stromal tumour (GIST), 72 or 96 hours exposure
Experimental: as §1, §2

MAWI = conditions: Colon, 72 or 96 hours exposure
Experimental: as §1, §2

T47D = conditions: Homo sapiens, Breast, 72 or 96 hours exposure
Experimental: as §1, §2

A375 = conditions: Homo sapiens, A-375, Melanoma, 72 or 96 hours exposure
Experimental: as §1, §2

U87MG = conditions: Homo sapiens, U-87 MG, Glioblastoma, 72 or 96 hours exposure
Experimental: as §1, §2

MDA-MB-361 = conditions: Homo sapiens, Breast, 72 or 96 hours exposure
Experimental: as §1, §2

MCF7 = conditions: Homo sapiens, Breast, 72 or 96 hours exposure
Experimental: as §1, §2

SK-MEL-5 = conditions: Homo sapiens, Melanoma, 72 or 96 hours exposure
Experimental: as §1, §2

PC3 = conditions: Homo sapiens, PC-3, Prostate, 72 or 96 hours exposure
Experimental: as §1, §2

41M = conditions: Homo sapiens, Ovarian, 72 or 96 hours exposure
Experimental: as §1, §2

MALME-3M = conditions: Homo sapiens, Melanoma, 72 or 96 hours exposure
Experimental: as §1, §2

MO7e = conditions: 72 or 96 hours exposure
Experimental: as §1, §2

CH1 = conditions: Homo sapiens, Ovarian, 72 or 96 hours exposure
Experimental: as §1, §2

RKO = conditions: Homo sapiens, Colon, 72 or 96 hours exposure
Experimental: as §1, §2

MV522 = conditions: Lung, 72 or 96 hours exposure
Experimental: as §1, §2

RPMI8226 = conditions: Homo sapiens, RPMI-8226, Multiple myeloma (MM), 72 or 96 hours exposure
Experimental: as §1, §2

SKOV3 = conditions: Homo sapiens, SK-OV-3, Ovarian, 72 or 96 hours exposure
Experimental: as §1, §2

A2780 = conditions: Homo sapiens, Ovarian, 72 or 96 hours exposure
Experimental: as §1, §2

U266 = conditions: Homo sapiens, U-266, Multiple myeloma (MM), 72 or 96 hours exposure
Experimental: as §1, §2

SKBr3 = conditions: Homo sapiens, SK-BR-3, Breast, 72 or 96 hours exposure
Experimental: as §1, §2

HN5 = conditions: Homo sapiens, Head & Neck, 72 or 96 hours exposure
Experimental: as §1, §2

RPMI-8226 = conditions: Homo sapiens, Leukemia, 72 or 96 hours exposure
Experimental: as §1, §2

BE = conditions: Colon, 72 or 96 hours exposure
Experimental: as §1, §2

NCI-H1299 = conditions: Homo sapiens, Lung, 72 or 96 hours exposure
Experimental: as §1, §2

HT29 = conditions: Homo sapiens, HT-29, Colon, 72 or 96 hours exposure
Experimental: as §1, §2

WM266.4 = conditions: Homo sapiens, WM 266-4, Melanoma, 72 or 96 hours exposure
Experimental: as §1, §2

A549 = conditions: Homo sapiens, Lung, 72 or 96 hours exposure
Experimental: as §1, §2

MDA-MB-453 = conditions: Homo sapiens, Breast, 72 or 96 hours exposure
Experimental: as §1, §2

IC50 (Colo205): 6.2 nM
IC50 (NCI-H460): 14 nM
IC50 (SK-MEL-28): 8 nM
IC50 (HCT116): 16 nM
IC50 (GIST882): 6.2 nM
IC50 (MAWI): 50 nM
IC50 (T47D): 2.6 nM
IC50 (A375): 3 nM
IC50 (U87MG): 6 nM
IC50 (MDA-MB-361): 6 nM
IC50 (MCF7): 2.3 nM
IC50 (SK-MEL-5): 3 nM
IC50 (PC3): 5 nM
IC50 (41M): 3 nM
IC50 (MALME-3M): 7.7 nM
IC50 (MO7e): 10.6 nM
IC50 (CH1): 2.8 nM
IC50 (RKO): 3.1 nM
IC50 (MV522): 8.1 nM
IC50 (RPMI8226): 36.7 nM
IC50 (SKOV3): 3.7 nM
IC50 (A2780): 6.1 nM
IC50 (U266): 23.3 nM
IC50 (SKBr3): 2.3 nM
IC50 (HN5): 8 nM
IC50 (RPMI-8226): 6.3 nM
IC50 (BE): 2.8 nM
IC50 (NCI-H1299): 5.7 nM
IC50 (HT29): 30 nM
IC50 (WM266.4): 6.2 nM
IC50 (A549): 11.7 nM
IC50 (MDA-MB-453): 3.9 nM
SMILES: CCNC(=O)c1noc(-c2cc(C(C)C)c(O)cc2O)c1-c1ccc(CN2CCOCC2)cc1 [AUY922, 5-(2,4-Dihydroxy-5-isopropyl-phenyl)-4-(4-morpholin-4-ylmethyl-phenyl)-isoxazole-3-carboxylic acid ethylamide]
